Laboratory results taken from patent US11168078B2, “Sulfoximine, sulfonimidamide, sulfondiimine and diimidosulfonamide compounds as inhibitors of indoleamine 2,3-dioxygenase” (Shanghai Fochon Pharmaceutical Co., Ltd., priority 2016, dated 2021).

Biological target: T1, IDO (Homo sapiens, UniProt P14902)
T1 construct: endogenous in cells; host or cells: HeLa cells stimulated with recombinant human interferon-gamma
Test: IDO Cell-Based LC/MS Assay
Conditions: Hela cells, 100 ng/mL recombinant human interferon-gamma, 20 hours, LC/MS readout
Description: IDO Cell-Based LC/MS Assay
Materials: RPMI 1640 (phenol red free) (Invitrogen Cat. No. 11835030), Fetal Bovine Serum (Invitrogen Cat. No. 10099141), Penicillin-Streptomycin (Invitrogen Gibco Cat. No. 15140-122), recombinant human interferon-gamma (R&D system, Cat. No. 285-IF-100), 5% (w/v) trichloroacetic acid (Alfa Aesar Cat. No. All 156), DMSO (Sigma, Cat. No. D2650), 96 wells_compound plate (Axygen, Cat. No. WIPP02280), 96 wells_assay plate (Greiner, Cat. No. 655090)
The concentrations of test compounds varied from 5 μM to 0.76 nM with 3-fold dilution, 9 points, in duplicates.
Hela cells were seeded at 40,000 cells per well with RPMI/phenol red free media containing 10% FBS in a 96-well tissue culture plate. After adding compound to cells, 100 ng/mL of recombinant human interferon-gamma was added to activate IDO signaling. The cells were incubated for 20 hours in 37° C. incubator with 5% CO2. Compound treatment was stopped by adding 5% trichloroacetic acid. Subsequently, the cell plate was further incubated at 50° C. for 30 minutes. After precipitation, the supernatant was collected and measured by triple quadrupole mass spectrometer (AB Sciex 4000), coupled with HPLC Shimadzu EC 20 AD and autosampler CTC PAL. Curves are fit by XLFIT5 as % inhibition vs. log [compound concentration] using a 4 parameters logistic model 205.
(§1) Select compounds prepared as described above were assayed according to the biological procedures described herein.

T1 sequence (P14902 whole entry): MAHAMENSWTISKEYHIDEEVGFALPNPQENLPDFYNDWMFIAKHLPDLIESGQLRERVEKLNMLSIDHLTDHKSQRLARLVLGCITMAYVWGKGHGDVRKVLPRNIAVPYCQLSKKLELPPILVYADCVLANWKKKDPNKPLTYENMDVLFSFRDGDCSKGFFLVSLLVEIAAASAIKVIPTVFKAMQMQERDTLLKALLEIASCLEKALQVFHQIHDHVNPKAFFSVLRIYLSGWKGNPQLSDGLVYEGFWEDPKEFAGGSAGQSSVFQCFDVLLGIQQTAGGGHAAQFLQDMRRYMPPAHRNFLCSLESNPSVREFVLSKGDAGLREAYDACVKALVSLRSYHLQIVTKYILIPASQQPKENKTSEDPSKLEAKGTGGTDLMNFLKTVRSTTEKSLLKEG

First: CS(C)(=O)=NCCNc1nonc1/C(=N/O)Nc1ccc(F)c(Br)c1 [Example 1, (Z)—N-(3-bromo-4-fluorophenyl)-4-((2-((dimethyl(oxo)-λ^6-sulfanylidene)amino)ethyl)amino)-N′-hydroxy-1,2,5-oxadiazole-3-carboximidamide]
Second: CCS(=O)(CC)=NCCNc1nonc1/C(=N/O)Nc1ccc(F)c(Br)c1 [Example 2, (Z)—N-(3-bromo-4-fluorophenyl)-4-((2-((diethyl(oxo)-λ^6-sulfanylidene)amino)ethyl)amino)-N′-hydroxy-1,2,5-oxadiazole-3-carboximidamide]
The IC50 of the first is 5-fold lower: 54 nM for the first, 270 nM for the second.

O=S1(=NCCNc2nonc2/C(=N/O)Nc2ccc(F)c(Br)c2)CCOCC1 [Example 3, (Z)—N-(3-bromo-4-fluorophenyl)-N′-hydroxy-4-((2-((4-oxido-1,4λ^6-oxathian-4-ylidene)amino)ethyl)amino)-1,2,5-oxadiazole-3-carboximidamide] and O=S1(=NCCNc2nonc2/C(=N/O)Nc2ccc(F)c(Br)c2)CCCC1 [Example 5, (Z)—N-(3-bromo-4-fluorophenyl)-N′-hydroxy-4-((2-((1-oxidotetrahydro-1λ^6-thiophen-1-ylidene)amino)ethyl)amino)-1,2,5-oxadiazole-3-carboximidamide] are within 1.5-fold of each other in IC50: 153 nM for the first, 195 nM for the second.

Going from O=S1(=NCCNc2nonc2/C(=N/O)Nc2ccc(F)c(Br)c2)CCCCC1 [Example 4, (Z)—N-(3-bromo-4-fluorophenyl)-N′-hydroxy-4-((2-((1-oxidotetrahydro-2H-1λ^6-thiopyran-1-ylidene)amino)ethyl)amino)-1,2,5-oxadiazole-3-carboximidamide] to CS(=N)(=O)NCCNc1nonc1C(=NO)Nc1ccc(F)c(Br)c1 (stereo not drawn) [Example 6, (Z)—N-(3-bromo-4-fluorophenyl)-N′-hydroxy-4-((2-(methylsulfonoimidamido)ethyl)amino)-1,2,5-oxadiazole-3-carboximidamide], the IC50 falls from 477 nM to 63.7 nM (7.5-fold).

Compared with CCS(=N)(=O)NCCNc1nonc1C(=NO)Nc1ccc(F)c(Br)c1 (stereo not drawn) [Example 7, (Z)—N-(3-bromo-4-fluorophenyl)-4-((2-(ethylsulfonoimidamido)ethyl)amino)-N′-hydroxy-1,2,5-oxadiazole-3-carboximidamide], CS(=N)(=O)NCCCNc1nonc1C(=NO)Nc1ccc(F)c(Br)c1 (stereo not drawn) [Example 8, (Z)—N-(3-bromo-4-fluorophenyl)-N′-hydroxy-4-((3-(methylsulfonoimidamido)propyl)amino)-1,2,5-oxadiazole-3-carboximidamide] is 2.8-fold higher in IC50: 6.6 nM for the first, 18.6 nM for the second.

Going from CC(CNc1nonc1/C(=N/O)Nc1ccc(F)c(Br)c1)NS(C)(=N)=O (stereo not drawn) [Example 9, (Z)—N-(3-bromo-4-fluorophenyl)-N′-hydroxy-4-((2-(methylsulfonoimidamido)propyl)amino)-1,2,5-oxadiazole-3-carboximidamide] to CC(CNS(C)(=N)=O)Nc1nonc1/C(=N/O)Nc1ccc(F)c(Br)c1 (stereo not drawn) [Example 10, (Z)—N-(3-bromo-4-fluorophenyl)-N′-hydroxy-4-((1-(methylsulfonoimidamido)propan-2-yl)amino)-1,2,5-oxadiazole-3-carboximidamide], the IC50 rises from 123 nM to 244 nM (2-fold).

Going from CN=S(C)(=O)NCCNc1nonc1C(=NO)Nc1ccc(F)c(Br)c1 (stereo not drawn) [Example 11, (Z)—N-(3-bromo-4-fluorophenyl)-N′-hydroxy-4-((2-(N′-methylmethylsulfonoamidimidamido)ethyl)amino)-1,2,5-oxadiazole-3-carboximidamide] to CS(=N)(=O)NCCNc1nonc1/C(=N/O)Nc1ccc(F)c(Cl)c1 (stereo not drawn) [Example 12, (Z)—N-(3-chloro-4-fluorophenyl)-N′-hydroxy-4-((2-(methylsulfonoimidamido)-ethyl)amino)-1,2,5-oxadiazole-3-carboximidamide], the IC50 falls from 40 nM to 12.3 nM (3.3-fold).

First: CS(=N)(=O)NCCNc1nonc1/C(=N/O)Nc1ccc(F)c(C#N)c1 (stereo not drawn) [Example 13, (Z)—N-(3-cyano-4-fluorophenyl)-N′-hydroxy-4-((2-(methylsulfonoimidamido)-ethyl)amino)-1,2,5-oxadiazole-3-carboximidamide]
Second: CS(=N)(=O)NCCNc1nonc1/C(=N/O)Nc1ccc(F)c(C(F)(F)F)c1 (stereo not drawn) [Example 14, (Z)—N-(4-fluoro-3-(trifluoromethyl)phenyl)-N′-hydroxy-4-((2-(methylsulfonoamidimidamido)ethyl)amino)-1,2,5-oxadiazole-3-carboximidamide]
The IC50 of the first is 15-fold higher: 311 nM for the first, 20.1 nM for the second.

First: CS(=N)(=O)NCCNc1nonc1/C(=N/O)Nc1cccc(C(F)(F)F)c1 (stereo not drawn) [Example 15, (Z)—N′-hydroxy-4-((2-(methylsulfonoamidimidamido)ethyl)amino)-N-(3-(trifluoromethyl)phenyl)-1,2,5-oxadiazole-3-carboximidamide]
Second: CCS(=N)(=O)NCCNc1nonc1/C(=N/O)Nc1cccc(C(F)(F)F)c1 (stereo not drawn) [Example 16, (Z)-4-((2-(ethylsulfonoimidamido)ethyl)amino)-N′-hydroxy-N-(3-(trifluoromethyl)phenyl)-1,2,5-oxadiazole-3-carboximidamide]
The IC50 of the first is 5.5-fold lower: 54.3 nM for the first, 298 nM for the second.

Biological target: T1, IDO
Test: IDO Cell-Based NEK Green Assay (NFK Green, N-formyl kynurenine level)
Conditions: Hela cells, 1 mM L-Tryptophan, 100 ng/mL recombinant human interferon-gamma, 2 days, NFK Green fluorescence
Description: IDO Cell-Based NEK Green Assay
Materials: RPMI 1640 (phenol red free) (Invitrogen Cat. No. 11835030), Fetal Bovine Serum (Invitrogen Cat. No. 10099141), Penicillin-Streptomycin (Invitrogen Gibco Cat. No. 15140-122), Cellular assay kit (NTRC, Cat. No. NTRC-GSCell-1K), DMSO (Sigma, Cat. No. D2650), 384 wells_compound plate (Greiner, Cat. No. 781280), 384 wells_assay plate (Greiner, Cat. No. 781091)
The concentrations of test compounds varied from 5 μM to 0.76 nM with 3-fold dilution, 10 points, in duplicates.
Hela cells were seeded at 8,000 cells per well with RPMI/phenol red free media containing 10% FBS in a 384-well tissue culture plate. Mixture of compounds and 1 mM L-Tryptophan were added to cells; and then the recombinant human interferon-gamma was added at the final concentration of 100 ng/mL to activate IDO signaling. The cells were incubated for 2 days in 37° C. incubator with 5% CO2. After that, NFK Green was used to detect the N-formyl kynurenine level by following the commercial kit instruction. The fluorescent signal was measured by Envision plate Reader (excitation, 400/25; emission, 510/20). Curves are fit by XLFIT5 as % inhibition vs. log [compound concentration] using a 4 parameters logistic model 205.
as §1

Compound CS(C)(=O)=NCCNc1nonc1/C(=N/O)Nc1ccc(F)c(Cl)c1 [Example 28, (Z)-N-(3-chloro-4-fluorophenyl)-4-((2-((dimethyl(oxo)-λ^6-sulfanylidene)amino)ethyl)amino)-N′-hydroxy-1,2,5-oxadiazole-3-carboximidamide] has an IC50 of 14.5 nM.

Test system: not listed separately
Test: Rat PK
Format: in vivo
Conditions: po, male SD rats, 5 mg/kg p.o., suspended in 0.5% methylcellulose in water, plasma
Description: Each test compounds was suspended in 0.5% methylcellulose in water.
Grouping male SD rats was administered with test compound at a dose of 5 mg/kg by oral. After administering, blood samples were collected at time points of 0.50, 1.0, 2.0, 4.0, 6.0, 8.0 and 24.0 h. Standard curve was plotted based on concentrations of the samples in a suitable range, and the concentration of test compounds in plasma samples were determined by using LC-MS/MS. Pharmacokinetic parameters were calculated according to plasma concentration-time curve by Phoenix WinNonLin 6.1 software.

Compared with CS(C)(=O)=NCCNc1nonc1/C(=N/O)Nc1ccc(F)c(Br)c1 [Example 1, (Z)—N-(3-bromo-4-fluorophenyl)-4-((2-((dimethyl(oxo)-λ^6-sulfanylidene)amino)ethyl)amino)-N′-hydroxy-1,2,5-oxadiazole-3-carboximidamide], CS(C)(=O)=NCCNc1nonc1/C(=N/O)Nc1ccc(F)c(Cl)c1 [Example 28, (Z)-N-(3-chloro-4-fluorophenyl)-4-((2-((dimethyl(oxo)-λ^6-sulfanylidene)amino)ethyl)amino)-N′-hydroxy-1,2,5-oxadiazole-3-carboximidamide] is 3.6-fold lower in AUC(0-inf): 4030 ng·h/mL for the first, 1120 ng·h/mL for the second.

Going from CCS(=N)(=O)NCCNc1nonc1C(=NO)Nc1ccc(F)c(Br)c1 (stereo not drawn) [Example 7, (Z)—N-(3-bromo-4-fluorophenyl)-4-((2-(ethylsulfonoimidamido)ethyl)amino)-N′-hydroxy-1,2,5-oxadiazole-3-carboximidamide] to NS(=O)(=O)NCCNc1nonc1C(=NO)Nc1ccc(F)c(Br)c1 [Reference Compound 1, (Z)—N-(3-bromo-4-fluorophenyl)-N′-hydroxy-4-((2-(sulfamoylamino)ethyl)amino)-1,2,5-oxadiazole-3-carboximidamide, reference compound], the AUC(0-inf) falls from 1450 ng·h/mL to 924 ng·h/mL (1.6-fold).

First: CS(C)(=O)=NCCNc1nonc1/C(=N/O)Nc1ccc(F)c(Br)c1 [Example 1, (Z)—N-(3-bromo-4-fluorophenyl)-4-((2-((dimethyl(oxo)-λ^6-sulfanylidene)amino)ethyl)amino)-N′-hydroxy-1,2,5-oxadiazole-3-carboximidamide]
Second: CS(C)(=O)=NCCNc1nonc1/C(=N/O)Nc1ccc(F)c(Cl)c1 [Example 28, (Z)-N-(3-chloro-4-fluorophenyl)-4-((2-((dimethyl(oxo)-λ^6-sulfanylidene)amino)ethyl)amino)-N′-hydroxy-1,2,5-oxadiazole-3-carboximidamide]
The AUC(0-t) of the first is 3.5-fold higher: 3840 ng·h/mL for the first, 1100 ng·h/mL for the second.

First: CCS(=N)(=O)NCCNc1nonc1C(=NO)Nc1ccc(F)c(Br)c1 (stereo not drawn) [Example 7, (Z)—N-(3-bromo-4-fluorophenyl)-4-((2-(ethylsulfonoimidamido)ethyl)amino)-N′-hydroxy-1,2,5-oxadiazole-3-carboximidamide]
Second: NS(=O)(=O)NCCNc1nonc1C(=NO)Nc1ccc(F)c(Br)c1 [Reference Compound 1, (Z)—N-(3-bromo-4-fluorophenyl)-N′-hydroxy-4-((2-(sulfamoylamino)ethyl)amino)-1,2,5-oxadiazole-3-carboximidamide, reference compound]
The AUC(0-t) of the first is 1.6-fold higher: 1440 ng·h/mL for the first, 880 ng·h/mL for the second.

Going from CS(C)(=O)=NCCNc1nonc1/C(=N/O)Nc1ccc(F)c(Br)c1 [Example 1, (Z)—N-(3-bromo-4-fluorophenyl)-4-((2-((dimethyl(oxo)-λ^6-sulfanylidene)amino)ethyl)amino)-N′-hydroxy-1,2,5-oxadiazole-3-carboximidamide] to CS(C)(=O)=NCCNc1nonc1/C(=N/O)Nc1ccc(F)c(Cl)c1 [Example 28, (Z)-N-(3-chloro-4-fluorophenyl)-4-((2-((dimethyl(oxo)-λ^6-sulfanylidene)amino)ethyl)amino)-N′-hydroxy-1,2,5-oxadiazole-3-carboximidamide], the Cmax falls from 1500 ng/mL to 469 ng/mL (3.2-fold).

Compared with CCS(=N)(=O)NCCNc1nonc1C(=NO)Nc1ccc(F)c(Br)c1 (stereo not drawn) [Example 7, (Z)—N-(3-bromo-4-fluorophenyl)-4-((2-(ethylsulfonoimidamido)ethyl)amino)-N′-hydroxy-1,2,5-oxadiazole-3-carboximidamide], NS(=O)(=O)NCCNc1nonc1C(=NO)Nc1ccc(F)c(Br)c1 [Reference Compound 1, (Z)—N-(3-bromo-4-fluorophenyl)-N′-hydroxy-4-((2-(sulfamoylamino)ethyl)amino)-1,2,5-oxadiazole-3-carboximidamide, reference compound] is 2.9-fold lower in Cmax: 496 ng/mL for the first, 169 ng/mL for the second.

Going from CS(C)(=O)=NCCNc1nonc1/C(=N/O)Nc1ccc(F)c(Br)c1 [Example 1, (Z)—N-(3-bromo-4-fluorophenyl)-4-((2-((dimethyl(oxo)-λ^6-sulfanylidene)amino)ethyl)amino)-N′-hydroxy-1,2,5-oxadiazole-3-carboximidamide] to CS(C)(=O)=NCCNc1nonc1/C(=N/O)Nc1ccc(F)c(Cl)c1 [Example 28, (Z)-N-(3-chloro-4-fluorophenyl)-4-((2-((dimethyl(oxo)-λ^6-sulfanylidene)amino)ethyl)amino)-N′-hydroxy-1,2,5-oxadiazole-3-carboximidamide], the half-life falls from 3.83 h to 1.19 h (3.2-fold).

CCS(=N)(=O)NCCNc1nonc1C(=NO)Nc1ccc(F)c(Br)c1 (stereo not drawn) [Example 7, (Z)—N-(3-bromo-4-fluorophenyl)-4-((2-(ethylsulfonoimidamido)ethyl)amino)-N′-hydroxy-1,2,5-oxadiazole-3-carboximidamide] and NS(=O)(=O)NCCNc1nonc1C(=NO)Nc1ccc(F)c(Br)c1 [Reference Compound 1, (Z)—N-(3-bromo-4-fluorophenyl)-N′-hydroxy-4-((2-(sulfamoylamino)ethyl)amino)-1,2,5-oxadiazole-3-carboximidamide, reference compound] are within 1.5-fold of each other in half-life: 3.47 h for the first, 2.48 h for the second.
